Data published in US20140370520A1, “METHODS AND COMPOUNDS FOR DETECTING CANCER” (University College Cardiff Constultants Limited, priority 2010, published 2014).
Several values for one entry are separate records, joined by “and”; a condition that tells them apart may be missing. Identical values can stand only once.

How the values were obtained:
[1] = molecular target: T1, hNQO1 (Homo sapiens, UniProt P15559); assay: Activity of 4-MU and Lactone with hNQO1; type: biochemical; conditions: 0.1 mM, NADH 0.5 mM, hNQO1, phosphate buffer pH 7, 37° C. (FIG. 6)
Method: This experiment was performed to ensure the products of activation were not further metabolised by hNQO1. HPLC was carried out on samples containing 4-MU and Lactone (0.1 mM), NADH (0.5 mM) and hNQO1 (0.2 μg) in phosphate buffer (10 mM, pH 7) using a 1-99% acetonitrile gradient and a 2 μl injection volume. Temperature was maintained at 37° C.

[2] = molecular target: T2, hNQO2 in PC3 cells (Homo sapiens, UniProt P16083); assay: Discrimination between NQO1 and NQO2 activity in PC3 cells with co-substrate EP-0152R; type: cell-based; conditions: 5×10^5 PC-3 cells, 10 uM MTL8-252, 100 uM EP-0152R, 37° C., 5 min (FIG. 14)
T2 construct: Prostate carcinoma cells (as exemplified by PC3 cells) express both NQO1 and NQO2 activity; endogenous in cells; host or cells: PC3 (PC-3) human prostate cancer cell line
T2 sequence (P16083 1-231): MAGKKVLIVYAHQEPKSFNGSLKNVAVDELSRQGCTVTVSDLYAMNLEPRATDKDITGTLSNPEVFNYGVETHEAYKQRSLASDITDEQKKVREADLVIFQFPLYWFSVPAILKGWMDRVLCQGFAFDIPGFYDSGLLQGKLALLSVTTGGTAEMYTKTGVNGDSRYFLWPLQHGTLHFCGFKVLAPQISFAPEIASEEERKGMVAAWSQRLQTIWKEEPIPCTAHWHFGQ
Method: Prostate carcinoma cells (as exemplified by PC3 cells) express both NQO1 and NQO2 activity. However, the latter is only activated by the presence of a co-substrate not naturally present in the cells (EP-0152R, 1-carbamoylmethyl-3-carbamoyl-1,4-dihydronicotinamide).
To 440 ul of PBS containing 5×10^5 PC-3 cells pre-incubated at 37° C. for 5 min was added 10 uM MTL8-252 fluorogenic substrate in DMSO (final, 10 ul) and volume adjusted to 500 ul with PBS. After incubating for a further 5 min the mixture was syringe filtered as above and 2 ul of supernatant analysed by uplc as described earlier. The reaction on the same number of cells was repeated with the inclusion of 100 uM EP-0152R (50 ul) as co-substrate during incubation. The reaction mixture was filtered and analysed as above. […] In the former instance, where NQO1 and NQO2 are expressed, the supplemented assay can be used to provide a stronger assay signal and in the latter instance, where only NQO2 is expressed, the supplemented assay can be used to detect hNQO2 expressing cancers only.

[3] = molecular target: T1, hNQO1; assay: Evaluation of MTL8-252 activity with human NQO1 (HPLC/UPLC, UV and fluorescence detection); type: biochemical
Method: Initial HPLC was carried out on samples containing MTL8-252 (0.1 mM), NADH (0.5 mM) and 0.5 μg/ml hNQO1 in phosphate buffer (10 mM, pH 7) using a 1-99% acetonitrile gradient and a 1 μl injection volume. Temperature was maintained at 37° C.
Reduction of the parent compound was rapid as most of it had disappeared by the second injection. […] The rate of reduction in MTL8-252 concentration was calculated at 5.9 μM/min and when the concentration of the enzyme was halved the rate reduced to 1.5 μM/min
By altering the settings of the FL Plus detector (Low PMT voltage, λex 410 nm, λem 550 nm) and calibrating for 4-MU measurements by establishing a calibration graph it can be seen that there was a linear response to 4-MU up to at least 200 μM. The maximum concentration used in incubation experiments is 100 μM, final.
Following calibration of the instrument, a repeat experiment of the activation of MTL8-252 by hNQO1 was carried out resulting in calculated rates of loss of MTL8-252 and formation of 4-MU (see FIG. 4). Rate loss of MTL8-252 was 8.41 uM/min and that corresponding to 4-MU formation determined by fluorescence was 13.51 uM/min.

[4] = test system: null expressing cell line F179; assay: MTL8-252 incubation with cultured cells, uplc separation followed by FL-Plus detection; type: cell-based; conditions: MTL8-252 10 μM in PBS, 5×10^5 cells/mL
Method: (§1) Cells in exponential growth phase were harvested and resuspended in cold PBS at 5×10^6 cells/ml. 100 ul of cell suspension (5×10^5 cells) were added to 1 ml PBS containing 10 uM MTL8-252 at 37° C. and incubated for the following time periods: 0, 5, 30 and 60 min. The reaction was stopped by spinning down cells at 13,000 rpm for 30 seconds and the cell free extract injected (2 ul) directly unto the uplc.

[5] = molecular target: T3, hDT7 NQO1-expressing cell line (Homo sapiens, UniProt P15559); assay: as above; type: cell-based
T3 construct: expressed in transfected cells; host or cells: HDT7 (engineered NQO1-producing cell line; F179 is the null control)
Method: as §1

[6] = Stability of MTL8-252 in NMP and sodium phosphate buffer; type: physicochemical
Method: Stability of 0.1M MTL8-252 in NMP was assessed over a 2-hour period at 37° C. The compound appeared stable as evidenced by the fact that the uv absorbance peak area remained substantially unchanged. […] A similar experiment was carried out with DMSO stock diluted in 10 mM sodium phosphate buffer.

[7] = Stability of MTL8-252 in PBS and cell culture media with or without FBS; type: physicochemical
Description: Possible source is from FBS added in media.

[8] = molecular target: T1, hNQO1; assay: Evaluation of MTL8-252 activity with human NQO1 (HPLC/UPLC, UV and fluorescence detection); type: biochemical; remark: listed apart in the source
[9] = Control experiment: substrate alone without cells, 4-MU release; type: physicochemical
[10] = Solubility of MTL8-252 in NMP and DMSO; type: physicochemical
Method: NMP Solubility: A solution of the product of Example 3D (MTL8-252) was prepared in NMP and further diluted to 0.1M in NMP. The purity of the compound was assessed via uplc using a 1-99% Acetonitrile gradient. Injection volumes of 0.5 μl, 1 μl, 2 μl, 3 μl and 5 μl were used. Purity was determined to be almost 100% based on uv data at 265 nm. The FL Plus settings were (high PMT voltage, λex 410 nm and λem 550 nm, off peak). Only a single peak with retention time of approx 4.3 min was detected. MTL8-252 was equally very soluble in DMSO.
A similar result was obtained for the diluted DMSO stock. Subsequent experiments utilised 0.1M diluted stock in 10 mM phosphate buffer, pH 7.0 and injected directly onto the uplc column

[11] = molecular target: T4, Human NQO1 expressing cells (HDT7) (Homo sapiens, UniProt P15559); assay: MTL8-252 incubation with cultured cells, luminescence spectrophotometric determination of 4-MU; type: cell-based
T4 construct: expressed in transfected cells; host or cells: HDT7 (engineered NQO1-producing cell line; F179 is the null control)
Method: (§2) Human NQO1 expressing cells (HDT7) and null expressing cells (F179) were cultured in Eagle's MEM medium enriched with non-essential amino acids and 10% FBS. Cells were harvested in exponential growing phase and suspended in cold PBS @ 5×10^6 cells/ml. 100 ul of cell suspension (5×10^5 cells) were added to 3 ml PBS containing 10 uM MTL8-252 at 37° C. in a fluorimeter cuvette and the rate of increase in fluorescence intensity (attributed to 4-MU release), measured over 3 minutes. Control experiment contained substrate alone in PBS.
(§3) The Luminescence Spectrophotometer settings were as follows: λex=360 nm; λem=452 @ 37° C.

[12] = test system: null expressing cells (F179); assay: as above; type: cell-based; conditions: F179 2.5×10^5 cells/mL, luminescence spectrophotometer
Method: as §2, §3

[13] = repeat experiment after calibration (FIG. 4)
[14] = replots of UV data at 210 nm (FIG. 5)

T1 sequence (P15559 whole entry): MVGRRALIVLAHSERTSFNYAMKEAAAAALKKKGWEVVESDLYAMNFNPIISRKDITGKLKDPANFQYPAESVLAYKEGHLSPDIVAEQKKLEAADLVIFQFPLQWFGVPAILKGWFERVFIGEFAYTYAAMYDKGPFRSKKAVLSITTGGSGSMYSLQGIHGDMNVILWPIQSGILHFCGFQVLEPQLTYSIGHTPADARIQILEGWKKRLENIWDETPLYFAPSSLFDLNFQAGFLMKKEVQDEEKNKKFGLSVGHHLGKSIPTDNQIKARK
T3 sequence (P15559 whole entry): as above
T4 sequence (P15559 whole entry): as above

Structure (SMILES): Cc1cc(=O)oc2cc(O)ccc12 [Compound 4-MU, 4-methylumbelliferone, reference compound]
- substrate of / stability in the presence of hNQO1 [1]: not substrates of hNQO1
- substrate of / stability in the presence of hNQO1 ([1]; listed as 4 MU): stable in the presence of hNQO1

Structure (SMILES): CC1=C(C)C(=O)C(C(C)(C)CC(=O)Oc2ccc3c(C)cc(=O)oc3c2)=C(C)C1=O [MTL8-252, 4-Methyl-2-oxo-2H-chromen-7-yl-3-methyl-3-(2,4,5-trimethyl-3,6-dioxocyclohexa-1,4-dienyl)butanoate]
- increase in the formation of 4-MU by addition of hNQO2 selective co-substrate [2]: 1.2 fold
- rate of disappearance of Compound (FIG. 4) ([3]; MTL8-252 100 μM, hNQO1 0.2 μg/mL, NADH 500 μM, UPLC): 13.51 µM/min
- reduction in the area of the peak without enzyme ([3]; MTL8-252 alone or with NADH alone (FIG. 3)): No significant reduction
- rate of appearance of 4 MU (FIG. 5) ([3]; UV at 210 nm, hNQO1 and NADH): 11.5 µM/min
- rate of appearance of the lactone (FIG. 5) ([3]; UV at 210 nm, hNQO1 and NADH): 9.84 µM/min
- rate of disappearance of MTL8-252 (FIG. 5) ([3]; UV at 210 nm, hNQO1 and NADH): 8.41 µM/min
- rate of appearance of 4 MU (FIG. 4) ([3]; detected by fluorescence, MTL8-252 100 μM, hNQO1 0.2 μg/mL, NADH 500 μM): 8.41 µM/min
- Rate of formation of Lactone (n = 2) ([3]; initial rates, MTL8-252 0.1 mM, NADH 0.5 mM, hNQO1, pH 7, 37° C.): 9.84 µM/min and 7.61 µM/min
- Rate of decrease in MTL8-252 concentration (n = 4) ([3]; initial rates, MTL8-252 0.1 mM, NADH 0.5 mM, hNQO1, phosphate buffer 10 mM pH 7, 37° C.): 5.9 µM/min and 6.21 µM/min and 8.41 µM/min and 9.05 µM/min
- Rate of formation of 4-MU @ 210 nm (n = 2) ([3]; initial rates, UV 210 nm, MTL8-252 0.1 mM, NADH 0.5 mM, hNQO1, pH 7, 37° C.): 11.48 µM/min and 6.0 µM/min
- Rate of formation of 4-MU by FL (n = 2) ([3]; initial rates, fluorescence detection, MTL8-252 0.1 mM, NADH 0.5 mM, hNQO1, pH 7, 37° C.): 13.51 µM/min and 6.90 µM/min
- 4-MU formation determined by fluorescence [3, 13]: 13.51 µM/min
- Rate loss of MTL8-252 [3, 13]: 8.41 µM/min
- initial rate of formation of 4-MU [3, 14]: 11.48 µM/min
- initial rate of formation of lactone [3, 14]: 9.84 µM/min
- substrate for hNQO1 ([3]; with NADH, pH 7, 37° C.): excellent substrate for hNQO1
- initial rate of release of 4 MU in F179 cells (FIG. 8) [4]: 0.068 µM/min
- increase in activity of hNQO1 expressing cells over null expressing cells (initial rate) ([5]; FIG. 8, uplc FL-Plus): about 100 fold
- initial rate of release of 4 MU in hDT7 cells (FIG. 8) ([5]; MTL8-252 10 μM in PBS, 5×10^5 cells/mL, FL-Plus λex=360 nm λem=450 nm): 6.1 µM/min
- release of 4-methylumbelliferone (4-MU) in NMP ([6]; 0.1M in NMP, 2-hour period at 37° C.): No detectable release
- Stability in NMP ([6]; 0.1M in NMP, 2-hour period at 37° C., uv absorbance peak area): stable
- stability in 10 mM sodium phosphate buffer, time stable ([6]; DMSO stock diluted in 10 mM sodium phosphate buffer (FIG. 2)): at least 1 hr
- stability in phosphate buffer, time stable ([6]; phosphate buffer (10 mM), 37° C., monitored 75 mins (FIG. 2)): at least 1 hour
- stability in PBS (FIG. 9) ([7]; PBS): very stable
- stability in cell culture medium (FIG. 9) ([7]; PBS replaced with cell culture medium, possible source FBS): other components in the media can reduce MTL8-252
- stability in media without FBS (FIG. 9) ([7]; media without FBS): very stable
- rate of reduction in MTL8-252 concentration ([8]; 0.2 μg/ml hNQO1, NADH): 5.9 µM/min
- rate of reduction in MTL8-252 concentration ([8]; concentration of the enzyme halved (0.10 μg/mL hNQO1)): 1.5 µM/min
- rate of release of 4 MU from the control experiment (FIG. 8) ([9]; MTL8-252 10 μM in PBS alone): 0.002 µM/min
- rate of formation of 4 MU in the urine alone (FIG. 7) ([9]; compound in urine alone, no cells): 0.32 nmol/min
- solubility in DMSO [10]: very soluble
- increase in 4-MU formation rate, HDT7 compared with null expressing cells (F179) ([11]; FIG. 7, luminescence spectrophotometer): at least 5 fold
- rate of formation of 4 MU in the hDT7 cells (FIG. 7) ([11]; hDT7 2.5×10^5 cells/mL, luminescence spectrophotometer): 0.83 nmol/min
- rate of formation of 4 MU in the F179 cells (FIG. 7) [12]: 0.18 nmol/min

Structure (SMILES): Cc1c(C)c2c(c(C)c1O)C(C)(C)CC(=O)O2 [Lactone, 6-Hydroxy-4,4,5,7,8-pentamethyl-1-benzopyran-2-one]
- substrate of / stability in the presence of hNQO1 [1]: not substrates of hNQO1
- substrate of / stability in the presence of hNQO1 ([1]; listed as lactone): stable in the presence of hNQO1
